The record followed here is PubChem BioAssay (NCI).

Some test systems named below: A549 NSCLC; EKVX NSCLC; IGROV1 ovarian; M14 melanoma; MOLT-4 leukemia; NCI-H460 lung; OVCAR-4 ovarian; SK-MEL-28 melanoma; SN12C renal; UO-31 renal.
What all share (assay): NCI tumour cell line growth inhibition, 48 h

Structures are written as SMILES. Several values for one entry are separate records, joined by “and”; a condition that tells them apart may be missing. Equal entries are not always repeated.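 In this assay, cells in 96-well plates receive the compound at five concentrations for 48 hours. Endpoints are linearly interpolated between the surrounding concentrations. GI50 = concentration required for 50% inhibition of growth. At the TGI there is no net growth.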

Consider `O=c1c(F)cn(Cc2ccccc2CCl)c(=O)n1Cc1ccccc1CCl`, for which the GI50 with A549 NSCLC is 1.83 µM; in the assay on EKVX NSCLC, 3.07 µM; with IGROV1 ovarian, 1.33 µM; in the assay with M14 melanoma, 1.69 µM; with MOLT-4 leukemia, 1.77 µM; with NCI-H460 lung, 2.08 µM. For the same compound, the GI50 is 3.5 µM in the assay with OVCAR-4 ovarian, 1.4 µM in the assay with SK-MEL-28 melanoma, 2.75 µM in the assay on SN12C renal and 1.99 µM in the assay on UO-31 renal. For the same compound, the TGI in the assay on A549 NSCLC worked out at 4.29 µM; in the assay with EKVX NSCLC it was 9.22 µM; in the assay on IGROV1 ovarian, 2.99 µM; in the assay with M14 melanoma, 4.05 µM; with MOLT-4 leukemia it was 4.69 µM; in the assay on NCI-H460 lung, 4.9 µM. Further, the TGI in the assay with OVCAR-4 ovarian came to 12.8 µM; with SK-MEL-28 melanoma it was 3.32 µM; with SN12C renal it was 10.4 µM; in the assay with UO-31 renal it was 5.3 µM.

As for `Cc1nc(C(N)=S)sc1C(=O)/C=C/c1c(O)ccc2ccccc12`, the TGI with A549 NSCLC is more than 100 µM; with EKVX NSCLC, more than 100 µM; in the assay with IGROV1 ovarian, more than 100 µM; in the assay with M14 melanoma, more than 100 µM; in the assay on MOLT-4 leukemia it was more than 69 µM; with NCI-H460 lung, more than 100 µM. The TGI in the assay with OVCAR-4 ovarian, in the assay with SK-MEL-28 melanoma, in the assay on SN12C renal and in the assay with UO-31 renal was more than 100 µM throughout.

`Nc1ccc(/C=C/C(=O)NCc2cc3cc(-c4ccc(C(=O)N5CCC(F)(F)CC5)cc4)cc(-c4ccc(F)cc4)c3o2)cn1`: the GI50 in the assay with A549 NSCLC is more than 100 µM; with EKVX NSCLC, more than 100 µM; in the assay on IGROV1 ovarian, more than 44.7 µM; with M14 melanoma, 0.459 µM; with MOLT-4 leukemia, 3.46 µM; in the assay with NCI-H460 lung, 10.9 µM. Further, the GI50 with OVCAR-4 ovarian is more than 71.5 µM; in the assay with SK-MEL-28 melanoma, more than 100 µM; in the assay with SN12C renal it was 0.0589 µM; in the assay on UO-31 renal, more than 47.6 µM. In addition, the TGI was more than 100 µM in the assay on A549 NSCLC; more than 100 µM in the assay on EKVX NSCLC; more than 100 µM in the assay with IGROV1 ovarian; more than 55.8 µM with M14 melanoma; more than 100 µM in the assay on MOLT-4 leukemia; more than 100 µM with NCI-H460 lung. The TGI in the assay with OVCAR-4 ovarian, with SK-MEL-28 melanoma, in the assay with SN12C renal and in the assay on UO-31 renal was more than 100 µM throughout.

As to `CC(=O)/C(=C/c1ccccc1F)C(=O)c1ccccc1`, the TGI in the assay on A549 NSCLC is more than 100 µM; in the assay on EKVX NSCLC it was more than 100 µM; in the assay on IGROV1 ovarian it was more than 100 µM; in the assay with M14 melanoma, more than 100 µM; in the assay on MOLT-4 leukemia, 7.14 µM; with NCI-H460 lung, 97.8 µM. Besides, the TGI with OVCAR-4 ovarian, in the assay on SK-MEL-28 melanoma, in the assay with SN12C renal and in the assay on UO-31 renal was more than 100 µM in each case.

`O=C(N/N=C/c1ccccc1O)c1ccccc1`: the GI50 in the assay on A549 NSCLC is 3.9 µM; with EKVX NSCLC it was 2 µM; in the assay on IGROV1 ovarian it was 1.84 µM; in the assay with M14 melanoma, 1.75 µM; with MOLT-4 leukemia, 0.503 µM; in the assay with NCI-H460 lung, 1.18 µM. In addition, the GI50 is 0.725 µM with OVCAR-4 ovarian, 6.69 µM with SK-MEL-28 melanoma, 2.45 µM in the assay on SN12C renal and 1.53 µM with UO-31 renal. Moreover, the TGI is more than 100 µM in the assay on A549 NSCLC; more than 100 µM in the assay on EKVX NSCLC; more than 100 µM with IGROV1 ovarian; 15.3 µM with M14 melanoma; more than 100 µM in the assay with MOLT-4 leukemia; more than 100 µM with NCI-H460 lung. The TGI in the assay on OVCAR-4 ovarian was more than 100 µM; in the assay with SK-MEL-28 melanoma, more than 100 µM; in the assay with SN12C renal, more than 100 µM; in the assay with UO-31 renal, 11.7 µM.

For `CC(C)(C)c1cc(C=C(C#N)C#N)cc(C(C)(C)C)c1O`, the TGI in the assay with A549 NSCLC was 24.3 µM and 71.4 µM; with EKVX NSCLC it was 46.3 µM; in the assay with IGROV1 ovarian it was more than 247 µM; in the assay on M14 melanoma, 12.1 µM and 10.7 µM; in the assay on MOLT-4 leukemia it was 10.6 µM; with NCI-H460 lung, 21.9 µM. Also, the TGI with OVCAR-4 ovarian is more than 354 µM; with SK-MEL-28 melanoma, 43.6 µM; with SN12C renal, 4.6 µM; with UO-31 renal it was 0.891 µM and 3.7 µM. The GI50 in the assay with EKVX NSCLC was 0.518 µM and 0.825 µM; with IGROV1 ovarian, 0.493 µM; with M14 melanoma, 0.533 µM; in the assay with NCI-H460 lung it was 0.305 µM; in the assay on OVCAR-4 ovarian it was 0.523 µM; in the assay on SK-MEL-28 melanoma it was 0.778 µM. Besides, in the assay with SN12C renal, the GI50 is 0.513 µM.

As for `C/C(=N/NC(=O)C[N+](C)(C)C)C(CN(C)C)C(=O)Nc1ccccc1` (configuration not stated), the TGI with A549 NSCLC, in the assay with EKVX NSCLC, with IGROV1 ovarian, in the assay with M14 melanoma, in the assay with MOLT-4 leukemia and in the assay with NCI-H460 lung was more than 100 µM in each case. Besides, the TGI in the assay on OVCAR-4 ovarian, in the assay with SK-MEL-28 melanoma, with SN12C renal and with UO-31 renal was more than 100 µM throughout.

`Cc1cc(I)cc(CN(C)CCCN2CCCC2)c1O`: the GI50 in the assay with A549 NSCLC was 29.9 µM; in the assay with EKVX NSCLC, 38.4 µM; in the assay on IGROV1 ovarian it was 19.5 µM; in the assay with M14 melanoma, 16.4 µM; in the assay on MOLT-4 leukemia, 16.1 µM; in the assay on NCI-H460 lung, 16.9 µM. Moreover, the GI50 with OVCAR-4 ovarian is 34 µM; with SK-MEL-28 melanoma, 15.3 µM; in the assay with SN12C renal, 46.1 µM; in the assay with UO-31 renal, 20 µM. Moreover, the TGI is more than 100 µM with A549 NSCLC; more than 100 µM in the assay on EKVX NSCLC; 44.7 µM in the assay on IGROV1 ovarian; 33 µM with M14 melanoma; 39.1 µM with MOLT-4 leukemia; 38.4 µM in the assay with NCI-H460 lung. The TGI in the assay with OVCAR-4 ovarian was more than 90.1 µM; with SK-MEL-28 melanoma, 29.9 µM; in the assay on SN12C renal, more than 100 µM; in the assay with UO-31 renal, more than 60.9 µM.

Take `COC(=O)C(/C(=N\O)C(=O)Nc1cccc(Cl)c1C)c1cnc2ccccc2n1` (configuration not stated): the TGI with A549 NSCLC, in the assay with EKVX NSCLC, in the assay with IGROV1 ovarian, with M14 melanoma, in the assay on MOLT-4 leukemia and with NCI-H460 lung was more than 100 µM throughout. The TGI with OVCAR-4 ovarian, in the assay on SK-MEL-28 melanoma, in the assay on SN12C renal and in the assay with UO-31 renal was more than 100 µM throughout.
